In patent US10030026B2, “Difluoroethylpyridine derivatives as NR2B NMDA receptor antagonists” (Rugen Holdings (Cayman) Limited, priority 2014, dated 2018):
Values joined by “and” are separate entries in the source; they are usually repeats but may differ in a detail not shown here. Equal values may be shown once.

Assays:
human NR1/NR2A = human NR1/NR2A (Homo sapiens (Human), UniProt Q05586+Q12879); test: NR2A antagonist activity, Fluo-4 calcium influx assay in HEK293 cells; format: cell-based
Protocol: (§1) Activation of the NR2A or NR2B subtype of NMDA receptor with glutamate as an agonist and glycine co-agonist on these cells results in calcium influx, which can be monitored with fluorescent indicator Fluo-4.
(§2) For experiments, the cells were seeded onto poly-D-lysine-coated 96-well black plates with clear bottom (Corning) at a density of ˜50,000 cells/well. After overnight culture, the growth medium was removed from the wells and the cells were incubated at 37° C. for 60 min in Hanks buffer containing 4 μM fluo-4-AM (Invitrogen) and 0.1% bovine serum albumin (BSA). After dye-loading, the cells were washed three times with Hanks buffer and incubated for 10 min at room temperature with various concentrations of test compounds prepared in Hanks buffer with 0.1% BSA. The cell plates were placed onto FDSS μCell fluorescence reader (Hamamatsu). After 20 sec reading of background fluorescence, agonist glutamate at final 100 μM and co-agonist glycine at final 50 μM were added to the cells to activate the receptor, and the resulting fluorescence changes were recorded and quantified.

human NR1/NR2B = human NR1/NR2B (Homo sapiens (Human), UniProt Q13224); test: NR2B antagonist activity, Fluo-4 calcium influx assay in HEK293 cells; format: cell-based; details: HEK293 cells stably expressing NR2B; glutamate 100 μM, glycine 50 μM
Sequence of human NR1/NR2B (Q13224 27-1484, other chains not shown): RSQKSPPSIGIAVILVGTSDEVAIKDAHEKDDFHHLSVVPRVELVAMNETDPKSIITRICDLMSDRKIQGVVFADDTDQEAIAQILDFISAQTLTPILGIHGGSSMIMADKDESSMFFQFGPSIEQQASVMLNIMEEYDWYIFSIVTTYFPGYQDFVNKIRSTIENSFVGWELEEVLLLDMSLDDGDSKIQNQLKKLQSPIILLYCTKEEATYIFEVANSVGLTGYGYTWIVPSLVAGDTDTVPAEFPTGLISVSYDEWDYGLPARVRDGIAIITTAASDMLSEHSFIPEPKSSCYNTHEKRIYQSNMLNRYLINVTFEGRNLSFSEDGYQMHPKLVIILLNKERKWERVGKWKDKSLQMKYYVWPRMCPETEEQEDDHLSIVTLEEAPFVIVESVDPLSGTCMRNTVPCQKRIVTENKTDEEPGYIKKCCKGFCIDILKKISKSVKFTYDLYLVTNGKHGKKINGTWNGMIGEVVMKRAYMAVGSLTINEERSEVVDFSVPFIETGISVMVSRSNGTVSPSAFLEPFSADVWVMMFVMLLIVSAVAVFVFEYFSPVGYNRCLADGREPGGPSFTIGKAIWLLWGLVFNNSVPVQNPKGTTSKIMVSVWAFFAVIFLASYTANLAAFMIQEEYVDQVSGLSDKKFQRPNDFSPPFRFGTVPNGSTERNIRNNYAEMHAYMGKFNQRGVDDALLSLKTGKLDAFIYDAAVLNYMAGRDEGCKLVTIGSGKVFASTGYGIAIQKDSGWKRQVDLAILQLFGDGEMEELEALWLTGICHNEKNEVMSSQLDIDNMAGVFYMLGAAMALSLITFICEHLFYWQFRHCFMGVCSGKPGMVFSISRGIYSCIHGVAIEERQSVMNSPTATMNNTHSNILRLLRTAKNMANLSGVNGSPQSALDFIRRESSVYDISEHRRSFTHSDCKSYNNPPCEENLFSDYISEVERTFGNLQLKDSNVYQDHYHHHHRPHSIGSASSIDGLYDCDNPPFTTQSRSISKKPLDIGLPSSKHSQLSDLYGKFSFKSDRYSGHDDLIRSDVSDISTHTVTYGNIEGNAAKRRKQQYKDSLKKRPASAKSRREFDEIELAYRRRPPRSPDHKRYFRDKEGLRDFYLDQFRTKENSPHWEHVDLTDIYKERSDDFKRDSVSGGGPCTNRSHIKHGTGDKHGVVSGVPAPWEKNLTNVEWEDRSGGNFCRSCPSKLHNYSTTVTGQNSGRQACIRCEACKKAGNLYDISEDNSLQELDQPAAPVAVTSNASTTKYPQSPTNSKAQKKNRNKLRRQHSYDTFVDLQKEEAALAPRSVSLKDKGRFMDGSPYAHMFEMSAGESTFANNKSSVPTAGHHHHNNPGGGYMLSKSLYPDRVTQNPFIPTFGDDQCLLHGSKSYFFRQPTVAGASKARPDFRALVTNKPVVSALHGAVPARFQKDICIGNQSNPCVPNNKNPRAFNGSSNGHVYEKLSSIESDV
Protocol: as §1, §2

hERG channel = hERG channel (Homo sapiens (Human), UniProt Q12809); test: hERG channel inhibition, whole cell patch clamp in HEK293 cells; format: cell-based; details: hERG stably expressed in HEK293 cells
Sequence of hERG channel (Q12809 whole entry): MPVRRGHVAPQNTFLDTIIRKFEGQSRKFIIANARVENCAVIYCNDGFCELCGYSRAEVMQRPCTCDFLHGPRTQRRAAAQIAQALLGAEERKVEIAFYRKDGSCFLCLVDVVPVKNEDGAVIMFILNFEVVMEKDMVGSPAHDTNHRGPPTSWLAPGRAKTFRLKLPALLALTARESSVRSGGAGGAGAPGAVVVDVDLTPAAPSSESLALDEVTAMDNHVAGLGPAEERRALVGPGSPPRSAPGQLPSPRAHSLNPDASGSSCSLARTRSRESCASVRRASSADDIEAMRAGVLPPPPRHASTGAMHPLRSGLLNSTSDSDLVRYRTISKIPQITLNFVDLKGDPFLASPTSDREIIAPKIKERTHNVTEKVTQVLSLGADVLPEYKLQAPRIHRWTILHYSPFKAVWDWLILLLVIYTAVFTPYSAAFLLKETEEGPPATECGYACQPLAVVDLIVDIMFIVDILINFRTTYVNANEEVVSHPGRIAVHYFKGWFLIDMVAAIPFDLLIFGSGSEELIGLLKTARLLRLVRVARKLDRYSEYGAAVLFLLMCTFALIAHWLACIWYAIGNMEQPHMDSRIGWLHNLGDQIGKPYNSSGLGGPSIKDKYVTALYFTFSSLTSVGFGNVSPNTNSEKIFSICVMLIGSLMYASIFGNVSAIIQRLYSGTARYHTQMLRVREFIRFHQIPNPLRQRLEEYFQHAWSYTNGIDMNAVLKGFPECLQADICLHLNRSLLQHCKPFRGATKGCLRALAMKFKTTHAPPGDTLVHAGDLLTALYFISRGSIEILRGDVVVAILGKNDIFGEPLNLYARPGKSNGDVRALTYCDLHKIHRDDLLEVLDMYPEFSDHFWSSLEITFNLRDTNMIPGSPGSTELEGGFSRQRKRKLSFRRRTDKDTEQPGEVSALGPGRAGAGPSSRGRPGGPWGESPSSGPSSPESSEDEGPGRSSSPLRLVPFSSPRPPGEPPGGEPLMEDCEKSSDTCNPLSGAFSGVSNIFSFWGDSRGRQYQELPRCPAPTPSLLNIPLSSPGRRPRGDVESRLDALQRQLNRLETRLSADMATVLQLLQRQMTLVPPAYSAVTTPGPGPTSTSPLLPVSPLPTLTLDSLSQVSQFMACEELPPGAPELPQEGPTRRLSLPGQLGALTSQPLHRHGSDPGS
Protocol: The assay was performed on hERG channel stably expressed in HEK293 cells. The cells were cultured at 37° C. in a humidified CO2 incubator in the growth medium consisting of DMEM, 10% fetal bovine serum and antibiotics. Prior to the assay, the cells were seeded onto a 12 mm PDL-coated glass coverslip and cultured in a 35 mm Petri dish. After 16 to 40 hr culture, the cover slip was transferred into the chamber of OctaFlow perfusion system (ALA Instrument) and under a constant flow of extracellular solution (140 mM NaCl, 4 M KCl, 1 mM MgCl2, 1 mM CaCl2, 10 mM HEPES, 10 mM D-glucose, pH 7.35, osmolarity 290). Whole cell patch clamping was performed with a glass micropipette filled with intracellular solution (120 mM KCl, 1.75 mM MgCl2, 10 mM HEPES, 10 mM EGTA, and 4 mM ATP-K2, PH 7.2, osmolarity 300). Giga-seal was maintained during the test. The voltage control and current measurement were carried out using Axon amplifier 700B, Digidata 1440A and CLAMPEX10 software (Molecular Devices). Whole-cell hERG currents were recorded following the Petroski protocol: the cell was held at −80 mV, and the voltage step jumped from −80 to 30 mV and stay for 2 sec with a 20 ms prepulse at −40 mV. After depolarization, the voltage was decreased to −40 mV and stay for 2 sec, and returned back to −80 mV. Test compound was applied by quartz capillary tubes tip (200 μm inner diameter), and the flow rate was controlled at 2-3 ml/min with OctaFlow perfusion system. Different concentrations of the compound were applied to the cells for 5 min and the hERG current was measured three times before, during and after compound treatment. The data were analyzed using Clampfit 10 software (Molecular Devices).

Male mice (strain NLMN) = test: Forced swim test; format: in vivo
Protocol: Mice that are forced to swim in a situation from which they cannot escape, rapidly become immobile. Drugs with antidepressant activity, such as imipramine, reduce the amount of time spent in the immobile state. […] All animals were housed in a temperature (22-24° C.) and humidity (50-60%) controlled environment with free access to food and water on a 12-hour light-dark cycle. Test compounds were dissolved in 0.5% dimethylsulfoxide, 4% hydroxypropyl-b-cyclodextrin water to generate the appropriate dosing solution. Drugs were administered by intraperitoneal injection at a dose volume of 10 mL/kg. Testing was initiated 20-60 minutes after dosing. […] Mice were placed in a white plastic cylinder 20 cm high with a diameter of 21 cm containing 10 cm of water at 25±2° C. The mice were videotaped for 6 minutes, and the last 4 minutes of video were analyzed by a blinded observer off-line. The observer judged the animal to be immobile when it ceased all activity (struggling, swimming, jumping etc.) and floated passively atop the water. The amount of time each animal spent in the immobile state was recorded and used for statistical analysis of compound effect. Group differences were evaluated by student's t-test or one-way ANOVA followed by post-hoc Dunnett's test.

CYP2D6 = CYP2D6 (Homo sapiens (Human), UniProt P10635); test: CYP P450 enzyme inhibition in pooled human liver microsome
Sequence of CYP2D6 (P10635 whole entry): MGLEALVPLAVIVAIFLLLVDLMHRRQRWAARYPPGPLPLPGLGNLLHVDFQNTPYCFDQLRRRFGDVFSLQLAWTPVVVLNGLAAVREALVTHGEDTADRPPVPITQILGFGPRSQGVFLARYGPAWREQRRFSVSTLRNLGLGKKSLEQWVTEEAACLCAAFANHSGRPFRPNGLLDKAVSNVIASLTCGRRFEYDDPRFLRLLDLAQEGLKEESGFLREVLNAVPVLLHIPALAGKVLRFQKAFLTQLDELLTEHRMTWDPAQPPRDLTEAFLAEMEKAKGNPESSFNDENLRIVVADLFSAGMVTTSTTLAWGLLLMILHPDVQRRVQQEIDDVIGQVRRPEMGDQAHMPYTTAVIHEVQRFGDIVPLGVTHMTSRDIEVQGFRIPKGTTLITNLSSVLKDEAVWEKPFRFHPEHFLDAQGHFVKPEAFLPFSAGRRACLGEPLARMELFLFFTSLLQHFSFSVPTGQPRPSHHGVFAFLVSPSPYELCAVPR
Protocol: Those CYP isoforms and their corresponding probe substrates are as follows: CYP1A2 (phenacetin, 30 μM), CYP2C9 (tolutamide, 100 μM), CYP2C19 (S-mephenytoin, 40 μM), CYP2D6 (dextromethorphan, 5 μM) and CYP3A4 (midazolam, 1 μM). All probe substrates were used at concentrations near or below their Kms. For experiment, a reaction mixture of test compound at 10 uM or in serial dilution, CYP probe substrate described above and 0.2 mg/mL pooled HLM in phosphate buffer, pH 7.4 in a final volume of 200 μL was pre-incubated at 37° C. for 10 minutes in triplicate. The reaction was initiated by addition of NADPH at final concentration of 1 mM. […] The samples were then centrifuged at 13,000 rpm and the supernatants were injected to LC-MS/MS (Agilent Technologies) to quantify the concentration of the specific metabolites of the probe substrates formed by individual CYP450 isoforms. The inhibition ratio is calculated as: (Mt−M0)/Mwater×100% • in which Mt and M0 represent the concentrations of the specific probe substrate metabolite, which was formed by individual CYP450 isoform, at the beginning and end of the reaction in the presence of test compound; while Mwater represents the concentration of the specific metabolite at the end of the reaction in the absence of test compound. […]

Sequence of human NR1/NR2A (Q12879 23-1464, other chains not shown): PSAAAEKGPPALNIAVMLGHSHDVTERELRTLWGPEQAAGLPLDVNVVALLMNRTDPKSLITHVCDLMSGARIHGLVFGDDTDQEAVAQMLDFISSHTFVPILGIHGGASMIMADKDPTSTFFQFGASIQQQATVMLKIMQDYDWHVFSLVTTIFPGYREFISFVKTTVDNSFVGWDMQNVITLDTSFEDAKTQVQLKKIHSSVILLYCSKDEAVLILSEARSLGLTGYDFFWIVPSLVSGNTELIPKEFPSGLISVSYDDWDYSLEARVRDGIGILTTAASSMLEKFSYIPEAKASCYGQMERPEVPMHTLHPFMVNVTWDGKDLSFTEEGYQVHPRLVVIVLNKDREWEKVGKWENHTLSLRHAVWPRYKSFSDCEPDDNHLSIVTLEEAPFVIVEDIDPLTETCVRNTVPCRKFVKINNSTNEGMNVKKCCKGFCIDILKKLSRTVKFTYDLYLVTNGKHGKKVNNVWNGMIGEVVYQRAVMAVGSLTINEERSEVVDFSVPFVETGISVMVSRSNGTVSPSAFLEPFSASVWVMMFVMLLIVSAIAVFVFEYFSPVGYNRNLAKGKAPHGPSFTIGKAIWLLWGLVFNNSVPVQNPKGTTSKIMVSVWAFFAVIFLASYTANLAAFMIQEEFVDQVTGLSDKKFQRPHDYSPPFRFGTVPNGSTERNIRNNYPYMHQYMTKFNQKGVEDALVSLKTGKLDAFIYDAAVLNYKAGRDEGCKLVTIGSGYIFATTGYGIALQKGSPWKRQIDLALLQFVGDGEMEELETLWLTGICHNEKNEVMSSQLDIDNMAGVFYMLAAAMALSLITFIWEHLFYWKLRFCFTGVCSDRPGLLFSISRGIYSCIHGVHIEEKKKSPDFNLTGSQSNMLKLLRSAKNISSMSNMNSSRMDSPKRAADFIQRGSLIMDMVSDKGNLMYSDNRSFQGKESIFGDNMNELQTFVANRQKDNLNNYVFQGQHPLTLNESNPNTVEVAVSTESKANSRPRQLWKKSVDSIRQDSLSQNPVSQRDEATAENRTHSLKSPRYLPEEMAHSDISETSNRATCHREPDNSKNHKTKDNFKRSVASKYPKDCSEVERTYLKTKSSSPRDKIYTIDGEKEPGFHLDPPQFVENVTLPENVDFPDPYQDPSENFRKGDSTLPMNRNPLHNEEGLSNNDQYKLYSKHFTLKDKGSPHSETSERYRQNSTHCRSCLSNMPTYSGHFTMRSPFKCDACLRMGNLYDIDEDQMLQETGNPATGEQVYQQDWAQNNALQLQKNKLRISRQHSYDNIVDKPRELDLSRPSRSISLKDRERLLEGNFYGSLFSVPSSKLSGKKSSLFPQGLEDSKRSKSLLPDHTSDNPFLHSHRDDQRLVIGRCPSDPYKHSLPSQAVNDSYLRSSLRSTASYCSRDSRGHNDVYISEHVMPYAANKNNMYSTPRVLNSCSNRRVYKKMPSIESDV

## FC(F)(CN1CCC(Nc2ncnc3[nH]ncc23)CC1)c1ccccn1 [C-1, N-(1-(2,2-difluoro-2-(pyridin-2-yl)ethyl)piperidin-4-yl)-1H-pyrazolo[3,4-d]pyrimidin-4-amine]
Human NR1/NR2A
  IC50: > 10000 nM
Human NR1/NR2B
  IC50: 178 nM

## FC(F)(CN1CCC(Nc2ncnc3[nH]ncc23)CC1)c1ccc(Cl)cn1 [C-3]
Human NR1/NR2A
  IC50: > 10000 nM
Human NR1/NR2B
  IC50: 26 nM

## Cc1ccc(C(F)(F)CN2CCC(Nc3ncnc4[nH]ncc34)CC2)nc1 [C-4, N-(1-(2,2-difluoro-2-(5-methylpyridin-2-yl)ethyl)piperidin-4-yl)-1H-pyrazolo[3,4-d]pyrimidin-4-amine]
Human NR1/NR2A
  IC50: > 10000 nM
Human NR1/NR2B
  IC50: 52 nM

## FC(F)(F)c1ccc(C(F)(F)CN2CCC(Nc3ncnc4[nH]ncc34)CC2)nc1 [C-5, N-(1-(2,2-difluoro-2-(5-(trifluoromethyl)pyridin-2-yl)ethyl)piperidin-4-yl)-1H-pyrazolo[3,4-d]pyrimidin-4-amine]
Human NR1/NR2A
  IC50: > 10000 nM
hERG channel
  IC50: 31000 nM
Male mice (strain NLMN); 3 mg/kg IP, vehicle group 188±6.6, p<0.05
  immobility time: 111 ± 18.3 s
Male mice (strain NLMN); 10 mg/kg IP, vehicle group 188±6.6, p<0.01
  immobility time: 89 ± 14.4 s

## FC(F)c1ccc(C(F)(F)CN2CCC(Nc3ncnc4[nH]ncc34)CC2)nc1 [C-6]
Human NR1/NR2A
  IC50: > 10000 nM
Human NR1/NR2B
  IC50: 34 nM

## FCc1ccc(C(F)(F)CN2CCC(Nc3ncnc4[nH]ncc34)CC2)nc1 [C-7]
Human NR1/NR2A
  IC50: > 10000 nM
Human NR1/NR2B
  IC50: 43 nM

## FC(F)Oc1ccc(C(F)(F)CN2CCC(Nc3ncnc4[nH]ncc34)CC2)nc1 [C-12]
Human NR1/NR2A
  IC50: > 10000 nM
Human NR1/NR2B
  IC50: 23 nM

## Fc1cnc(C(F)(F)CN2CCC(Nc3ncnc4[nH]ncc34)CC2)c(F)c1 [C-15, N-(1-(2-(3,5-difluoropyridin-2-yl)-2,2-difluoroethyl)piperidin-4-yl)-1H-pyrazolo[3,4-d]-pyrimidin-4-amine]
Human NR1/NR2A
  IC50: > 10000 nM
Human NR1/NR2B
  IC50: 93 nM

## Fc1cc(Cl)cnc1C(F)(F)CN1CCC(Nc2ncnc3[nH]ncc23)CC1 [C-16, N-(1-(2-(5-chloro-3-fluoropyridin-2-yl)-2,2-difluoroethyl)piperidin-4-yl)-1H-pyrazolo[3,4-d]pyrimidin-4-amine]
Human NR1/NR2A
  IC50: > 10000 nM
hERG channel
  IC50: 13000 nM
CYP2D6
  IC50: 10000 nM
Human NR1/NR2B
  IC50: 30 nM

## Cc1cnc(C(F)(F)CN2CCC(Nc3ncnc4[nH]ncc34)CC2)c(F)c1 [C-17, N-(1-(2,2-difluoro-2-(3-fluoro-5-methylpyridin-2-yl)ethyl)piperidin-4-yl)-1H-pyrazolo[3,4-d]pyrimidin-4-amine]
Human NR1/NR2A
  IC50: > 10000 nM
Human NR1/NR2B
  IC50: 48 nM

## Fc1cc(C(F)(F)F)cnc1C(F)(F)CN1CCC(Nc2ncnc3[nH]ncc23)CC1 [C-18, N-(1-(2,2-difluoro-2-(3-fluoro-5-(trifluoromethyl)pyridin-2-yl)-ethyl)piperidin-4-yl)-1H-pyrazolo[3,4-d]pyrimidin-4-amine]
Human NR1/NR2A
  IC50: > 10000 nM
Human NR1/NR2B
  IC50: 59 nM
Male mice (strain NLMN); 10 mg/kg, 20 minutes after IP dosing, vehicle group 175±14, p<0.01
  immobility time: 97 ± 16 s

## FC(F)(CN1CCC(Nc2ncnc3[nH]ncc23)CC1)c1ncc(Cl)cc1Cl [C-24, N-(1-(2-(3,5-dichloropyridin-2-yl)-2,2-difluoroethyl)piperidin-4-yl)-1H-pyrazolo[3,4-d]pyrimidin-4-amine]
Human NR1/NR2A
  IC50: > 10000 nM
Human NR1/NR2B
  IC50: 52 nM

## Cc1n[nH]c2ncnc(NC3CCN(CC(F)(F)c4ccc(C(F)(F)F)cn4)CC3)c12 [C-33, N-(1-(2,2-difluoro-2-(5-(trifluoromethyl)pyridin-2-yl)ethyl)piperidin-4-yl)-3-methyl-1H-pyrazolo[3,4-d]pyrimidin-4-amine]
Human NR1/NR2A
  IC50: > 10000 nM
hERG channel
  IC50: > 30000 nM
Human NR1/NR2B
  IC50: 110 nM and 89 nM

## FC(F)(F)c1ccc(C(F)(F)CN2CCC(Nc3ncnc4[nH]ncc34)CC2)cn1 [C-127, N-(1-(2,2-difluoro-2-(6-(trifluoromethyl)pyridin-3-yl)ethyl)piperidin-4-yl)-1H-pyrazolo[3,4-d]pyrimidin-4-amine]
hERG channel
  IC50: 23000 nM
Human NR1/NR2B
  IC50: 38 nM

## CN(C)CCCN1c2ccccc2CCc2ccccc21 [imipramine, reference compound]
Male mice (strain NLMN); positive control, 32 mg/kg, IP
  antidepressant activity: showed the expected antidepressant activity
